In patent EP1379283B1, “IDENTIFICATION OF TARGET-SPECIFIC FOLDING SITES IN PEPTIDES AND PROTEINS” (Palatin Technologies, Inc., priority 2000, dated 2002):
Square brackets hold non-standard residues; d marks the D form. Ends that are not written are not given here. Nle = CCCC[C@H](N)C(=O)O; Sar = CNCC(=O)O

Experiments:
uPA receptor = biological target: T1, uPA receptor (Homo sapiens, UniProt Q03405); experiment: uPA receptor-binding assay using U937 cells and ATF as competitive ligand; details: for % Inhibition at 1 µM: 1 µM metallopeptide, U937 cells, ATF as competitive receptor binding ligand
T1 construct: endogenous in cells; host or cells: U937 cells

hMC4-R = biological target: T2, hMC4-R (Homo sapiens, UniProt P32245); experiment: competitive inhibition binding assay with 125I-NDP-alpha-MSH, hMC4-R membranes; details: 0.4 nM 125I-NDP-alpha-MSH, mean of triplicate
T2 construct: expressed in transfected cells; host or cells: 293 cells
Procedure: (§1) Ac-Nle-Ala-His-D-Phe-Arg-Trp-NH2 is a known receptor-binding sequence for melanotropin receptors. The K, values for binding to MCR-1 and -4 were measured to be 0.1 µM and 2 µM respectively. A series of metallopeptides based on this sequence were synthesized by inserting a Cys residue after the 2 position and through the n+1 position and complexing the resulting Cys-containing peptide with an Re-oxo metal ion core as described Example 1. The resulting metallopeptides were screened for inhibiting the binding of 125-I-NDP-alpha-MSH radioligand using B-16 mouse melanoma cells for MCR-1 and cloned human MCR-[…] and -4 receptor transfected 293 cells.
(§2) The competitive inhibition binding assay was conducted using membranes prepared from hMC3-R, hMC4-R, hMC5-R, and B-16 mouse melanoma cells (containing MC1-R) using 0.4 nM ^125I-NDP-alpha-MSH (New England Nuclear, Boston, MA, USA) in 50 mM HEPES buffer containing 1 mM MgCl2, 2 mM CaCl2, and 5 mM KCI, at pH 7.2. The assay tube also contained a chosen concentration of the test peptide of this invention, complexed to a rhenium metal ion as indicated, for determining its efficacy in inhibiting the binding of ^125I-NDP-alpha-MSH to its receptor. Non-specific binding was measured by complete inhibition of binding of ^125I-NDP-alpha-MSH in the assay with the presence of 1 µM alpha-MSH. Incubation was for 90 minutes at room temperature, after which the assay mixture was filtered and the membranes washed three times with ice cold buffer. The filter was dried and counted in a gamma counter for remaining radioactivity bound to the membranes. 100% specific binding was defined as the difference in radioactivity (cpm) bound to cell membranes in the absence and presence of 1 µM alpha-MSH. The cpm obtained in presence of test compounds were normalized with respect to 100% specific binding to determine the percent inhibition of ^125I-NDP-alpha MSH binding. Each assay was conducted in triplicate and the actual mean valves are described in Table 2.

hMC5-R = biological target: T3, hMC5-R (Homo sapiens, UniProt P33032); experiment: competitive inhibition binding assay with 125I-NDP-alpha-MSH, hMC5-R membranes; details: 0.4 nM 125I-NDP-alpha-MSH, mean of triplicate
T3 construct: expressed in transfected cells; host or cells: 293 cells are named only for 'MCR-2, -3 and -4'; for MC5-R the host is inferred
Procedure: as §2

hMC3-R = biological target: T4, hMC3-R (Homo sapiens, UniProt P41968); experiment: competitive inhibition binding assay with 125I-NDP-alpha-MSH, hMC3-R membranes; details: 0.4 nM 125I-NDP-alpha-MSH, mean of triplicate
T4 construct: expressed in transfected cells; host or cells: 293 cells
Procedure: as §1, §2

MC1-R = biological target: T5, MC1-R (Mus musculus, UniProt Q01727); experiment: competitive inhibition binding assay with 125I-NDP-alpha-MSH, B-16 mouse melanoma cell membranes; details: for % Inhibition at 1 µM MC-1: 0.4 nM 125I-NDP-alpha-MSH, B-16 mouse melanoma cell membranes, mean of triplicate; for receptor specificity MCR-1 versus MCR-4: conclusion from Table 2
T5 construct: B-16 mouse melanoma cells (containing MC1-R); endogenous in cells; host or cells: B-16 mouse melanoma cells (membranes)
Procedure: as §1, §2

angiotensin-II receptor = biological target: T6, angiotensin-II receptor (Homo sapiens, UniProt P30556); experiment: angiotensin-II receptor binding, radioiodinated angiotensin II ligand, membranes of human neuroblastoma cells (KAN-TS); details: for % Inhibition at 1 µM: KAN-TS cell membranes, 125I-Tyr4, Sar1, Ile8-Angiotensin II
T6 construct: cell membranes obtained from human neuroblastoma cells (KAN-TS); endogenous in cells; host or cells: KAN-TS human neuroblastoma cells (membranes)
T6 sequence (P30556 1-359): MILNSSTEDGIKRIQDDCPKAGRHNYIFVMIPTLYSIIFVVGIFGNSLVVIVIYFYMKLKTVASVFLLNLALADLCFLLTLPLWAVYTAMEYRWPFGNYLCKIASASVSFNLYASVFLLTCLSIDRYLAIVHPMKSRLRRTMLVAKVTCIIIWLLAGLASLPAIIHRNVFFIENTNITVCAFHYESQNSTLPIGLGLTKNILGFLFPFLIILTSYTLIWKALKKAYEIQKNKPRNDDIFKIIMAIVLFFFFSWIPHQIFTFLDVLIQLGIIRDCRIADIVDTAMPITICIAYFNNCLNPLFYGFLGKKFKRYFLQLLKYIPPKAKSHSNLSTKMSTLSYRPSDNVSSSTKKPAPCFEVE
Procedure: The screening of compounds for binding to the angiotensin-II receptor was performed using cell membranes obtained from human neuroblastoma cells (KAN-TS). The assay was performed in triplicates, generally as described in Example 4 for oxytocin, except for measurement of receptor bound radioactivity. For angiotensin, a radioiodinated tracer ligand was used (instead of a tritiated ligand), which radioiodinated tracer facilitated direct measurement of bound radioactivity using a gamma counter. A final 1-3 nM concentration of ^125I-Tyr^4, Sar^1, Ile^8-Angiotensin II ligand (obtained from Perkin Elemer - NEN Life Sciences) was used as radiotracer and angiotensin-II (1 µM final assay concentration) was used to measure non-specific binding. After filtration of the incubation medium, followed by washings, drying the filters and punching the filters into test tubes, the filters were counted for radioactivity in a gamma counter. An activity profile for the test compounds was generated by ability to inhibit specific binding of the radiotracer to its receptor.

T1 sequence (Q03405 23-335): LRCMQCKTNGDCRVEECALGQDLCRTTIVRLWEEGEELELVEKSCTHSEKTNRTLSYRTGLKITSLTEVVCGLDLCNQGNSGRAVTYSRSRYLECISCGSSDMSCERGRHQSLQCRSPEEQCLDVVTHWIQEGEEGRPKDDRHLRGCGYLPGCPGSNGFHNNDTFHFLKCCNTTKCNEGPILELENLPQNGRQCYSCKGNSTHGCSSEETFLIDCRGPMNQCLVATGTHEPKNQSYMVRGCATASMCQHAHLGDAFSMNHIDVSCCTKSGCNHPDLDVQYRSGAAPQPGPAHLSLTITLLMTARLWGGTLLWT
T4 sequence (P41968 whole entry): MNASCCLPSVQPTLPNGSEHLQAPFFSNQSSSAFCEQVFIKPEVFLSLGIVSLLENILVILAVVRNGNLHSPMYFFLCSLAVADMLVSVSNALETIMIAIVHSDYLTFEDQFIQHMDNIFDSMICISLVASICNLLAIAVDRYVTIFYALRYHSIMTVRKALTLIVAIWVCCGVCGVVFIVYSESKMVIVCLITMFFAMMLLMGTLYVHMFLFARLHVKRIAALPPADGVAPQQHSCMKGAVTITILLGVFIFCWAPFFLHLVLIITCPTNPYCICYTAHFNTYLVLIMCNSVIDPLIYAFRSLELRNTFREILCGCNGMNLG
T3 sequence (P33032 whole entry): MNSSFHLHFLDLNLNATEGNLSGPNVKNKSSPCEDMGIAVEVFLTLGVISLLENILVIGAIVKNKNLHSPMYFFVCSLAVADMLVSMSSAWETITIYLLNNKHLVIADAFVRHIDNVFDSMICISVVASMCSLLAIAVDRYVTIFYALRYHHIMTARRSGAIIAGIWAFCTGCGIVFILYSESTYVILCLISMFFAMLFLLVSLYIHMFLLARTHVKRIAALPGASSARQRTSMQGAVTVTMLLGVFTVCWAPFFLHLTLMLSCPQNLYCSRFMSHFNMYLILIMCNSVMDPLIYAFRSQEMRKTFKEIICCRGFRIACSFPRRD
T5 sequence (Q01727 whole entry): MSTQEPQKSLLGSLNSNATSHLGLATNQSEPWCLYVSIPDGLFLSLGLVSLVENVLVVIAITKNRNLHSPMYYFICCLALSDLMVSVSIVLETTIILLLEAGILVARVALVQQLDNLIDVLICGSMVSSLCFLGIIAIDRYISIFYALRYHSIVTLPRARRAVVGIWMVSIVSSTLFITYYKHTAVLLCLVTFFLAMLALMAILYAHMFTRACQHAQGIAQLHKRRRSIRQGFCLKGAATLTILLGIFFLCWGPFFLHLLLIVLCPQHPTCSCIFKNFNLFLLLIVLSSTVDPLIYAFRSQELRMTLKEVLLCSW
T2 sequence (P32245 whole entry): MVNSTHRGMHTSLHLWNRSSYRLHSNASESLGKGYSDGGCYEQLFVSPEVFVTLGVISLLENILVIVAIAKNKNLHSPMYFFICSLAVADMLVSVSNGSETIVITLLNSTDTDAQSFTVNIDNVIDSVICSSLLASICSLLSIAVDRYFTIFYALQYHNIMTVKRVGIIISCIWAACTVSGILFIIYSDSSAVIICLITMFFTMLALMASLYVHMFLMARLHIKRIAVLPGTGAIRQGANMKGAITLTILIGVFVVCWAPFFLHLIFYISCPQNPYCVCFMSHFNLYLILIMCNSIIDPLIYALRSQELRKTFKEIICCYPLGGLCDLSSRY

Substance | % Inhibition at 1 µM MC-4 (hMC4-R) [%] | % Inhibition at 1 µM MC-5 (hMC5-R) [%] | % Inhibition at 1 µM MC-3 (hMC3-R) [%] | % Inhibition at 1 µM MC-1 (MC1-R) [%] | % Inhibition at 1 µM (angiotensin-II receptor) [%] | also measured
Ac-Val-Ser-Asn-Lys-Tyr-Phe-Ser-Asn-Ile-His-Cys-Trp-NH2 (Ac-VSNKYFSNIHCW-NH2; not fully specified (bridges); printed as Ac-Val-Ser-Asn-Lys-Tyr-Phe-Ser-Asn-Ile-His-Cys-Trp-NH2; also: oxorhenium(V) N3S1 metal chelate (X-X-Cys)) [SEQ ID NO:3] | – | – | – | – | – | % Inhibition at 1 µM (uPA receptor): 106.0%; relative potency in uPA receptor binding (uPA receptor; compared with the other metallopeptides of Table 1): most potent
Ac-Val-Ser-Asn-Lys-Tyr-Phe-Ser-Asn-lie-His-Trp-Cys-NH2 [SEQ ID NO:12] | – | – | – | – | – | % Inhibition at 1 µM (uPA receptor): 0.0%
Ac-Val-Ser-Asn-Lys-Tyr-Phe-Ser-Cys-Asn-Ile-His-Trp-NH2 (Ac-VSNKYFSCNIHW-NH2; not fully specified (bridges); printed as Ac-Val-Ser-Asn-Lys-Tyr-Phe-Ser-Cys-Asn-Ile-His-Trp-NH2; also: oxorhenium(V) N3S1 metal chelate (X-X-Cys)) [SEQ ID NO:9] | – | – | – | – | – | % Inhibition at 1 µM (uPA receptor): 35.0%
Ac-Val-Ser-Cys-Asn-Lys-Tyr-Phe-Ser-Asn-Ile-His-Trp-NH2 (Ac-VSCNKYFSNIHW-NH2; not fully specified (bridges); printed as Ac-Val-Ser-Cys-Asn-Lys-Tyr-Phe-Ser-Asn-Ile-His-Trp-NH2; also: oxorhenium(V) N3S1 metal chelate (X-X-Cys)) [SEQ ID NO:4] | – | – | – | – | – | % Inhibition at 1 µM (uPA receptor): 0.0%
Ac-[Nle]ACH[dF]RW-NH2 | 71 | 64 | 47 | 96 | – | –
Ac-[Nle]AHC[dF]RW-NH2 | 75 | 58 | 9 | 84 | – | –
Ac-[Nle]AH[dF]CRW-NH2 | 66 | 57 | 15 | 93 | – | –
Ac-[Nle]AH[dF]RCW-NH2 | 17 | 0 | 0 | 96 | – | receptor specificity MCR-1 versus MCR-4 (MC1-R): specific for the MCR-1 receptor but not the MCR-4 receptor
Ac-[Nle]AH[dF]RWC-NH2 | 98 | 93 | 70 | 91 | – | receptor specificity MCR-1 versus MCR-4 (MC1-R): binding both the MCR-1 and MCR-4 receptors
Sar-Arg-Cys-Val-Tyr-Ile-His-Pro-Thr ([Sar]RCVYIHPT; not fully specified (bridges); printed as Sar-Arg-Cys-Val-Tyr-Ile-His-Pro-Thr; also: oxorhenium(V) metal complex) [SEQ ID NO:165] | – | – | – | – | 1 | –
Sar-Arg-Val-Cys-Tyr-Ile-His-Pro-Thr ([Sar]RVCYIHPT; not fully specified (bridges); printed as Sar-Arg-Val-Cys-Tyr-Ile-His-Pro-Thr; also: oxorhenium(V) metal complex) [SEQ ID NO:164] | – | – | – | – | 1 | –
Sar-Arg-Val-Tyr-Cys-Ile-His-Pro-Thr ([Sar]RVYCIHPT; not fully specified (bridges); printed as Sar-Arg-Val-Tyr-Cys-Ile-His-Pro-Thr; also: oxorhenium(V) metal complex) [SEQ ID NO:163] | – | – | – | – | 12 | –
Sar-Arg-Val-Tyr-Ile-Cys-His-Pro-Thr ([Sar]RVYICHPT; not fully specified (bridges); printed as Sar-Arg-Val-Tyr-Ile-Cys-His-Pro-Thr; also: oxorhenium(V) metal complex) [SEQ ID NO:162] | – | – | – | – | 20 | –
Sar-Arg-Val-Tyr-Ile-His-Cys-Gly-Thr ([Sar]RVYIHCGT; not fully specified (bridges); printed as Sar-Arg-Val-Tyr-Ile-His-Cys-Gly-Thr; also: oxorhenium(V) metal complex) [SEQ ID NO:166] | – | – | – | – | 11 | percent inhibition compared with SEQ ID NO:161 (angiotensin-II receptor; Gly substituted for Pro): significantly less
Sar-Arg-Val-Tyr-Ile-His-Cys-Pro-Thr ([Sar]RVYIHCPT; not fully specified (bridges); printed as Sar-Arg-Val-Tyr-Ile-His-Cys-Pro-Thr; also: oxorhenium(V) metal complex) [SEQ ID NO:161] | – | – | – | – | 60 | –
Sar-Arg-Val-Tyr-Ile-His-Gly-Cys-Thr ([Sar]RVYIHGCT; not fully specified (bridges); printed as Sar-Arg-Val-Tyr-Ile-His-Gly-Cys-Thr; also: oxorhenium(V) metal complex) [SEQ ID NO:160] | – | – | – | – | 5 | –
